Experimental data from the supplement of paper PMC10307832.

How the values were obtained:
Test in all cases: relative viability (nuclei count vs DMSO), 5 days (fraction); higher = more cells survive
[1] = compound: CC[C@H](CO)Nc1nc(NCc2ccccc2)c2ncn(C(C)C)c2n1 [Seliciclib] + C[C@]1(O)C[C@@H](c2nc(-c3ccc4ccc(-c5ccccc5)nc4c3)c3c(N)nccn32)C1 [Linsitinib] (partner 1 µM)
Method in brief: (§1)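 Cells from lung cancer lines were seeded into 1536-well plates and, one day later, dosed by pin tool. Treatments were either a single drug or a fixed dose of an anchor drug with five library-drug doses (not always all listed) in √10 steps. After 5 days, nuclei were stained in a one-step fixation (final 0.05% Triton X-100, 1% formaldehyde, 1 ug/ml Hoechst) and counted on 4× images, and relative viability is the treated-to-vehicle nuclei ratio, as the median of duplicate plates.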

[2] = compound: CC[C@H](CO)Nc1nc(NCc2ccccc2)c2ncn(C(C)C)c2n1 [Seliciclib] + CS(=O)(=O)CCNCc1ccc(-c2ccc3ncnc(Nc4ccc(OCc5cccc(F)c5)c(Cl)c4)c3c2)o1 [Lapatinib] (partner 2 µM)
Method in brief: as §1

[3] = compound: CC[C@H](CO)Nc1nc(NCc2ccccc2)c2ncn(C(C)C)c2n1 [Seliciclib] + Cc1nc(NC(=O)N2CCC[C@H]2C(N)=O)sc1-c1ccnc(C(C)(C)C(F)(F)F)c1 [Alpelisib] (partner 2 µM)
Method in brief: as §1

[4] = compound: CC[C@H](CO)Nc1nc(NCc2ccccc2)c2ncn(C(C)C)c2n1 [Seliciclib] + COc1cccc2cc(-c3nc([C@H]4CC[C@H](C(=O)O)CC4)n4ncnc(N)c34)[nH]c12 [OSI-027] (partner 0.5 µM)
Method in brief: as §1

| Cell Line | relative viability ([1]; first compound 0.08 µM) | relative viability ([1]; first compound 0.253 µM) | relative viability ([1]; first compound 0.8 µM) | relative viability ([1]; first compound 2.53 µM) | relative viability ([1]; first compound 8 µM) | relative viability ([2]; first compound 0.08 µM) | relative viability ([2]; first compound 0.253 µM) | relative viability ([2]; first compound 0.8 µM) | relative viability ([2]; first compound 2.53 µM) | relative viability ([2]; first compound 8 µM) | relative viability ([3]; first compound 0.08 µM) | relative viability ([3]; first compound 0.253 µM) | relative viability ([3]; first compound 0.8 µM) | relative viability ([3]; first compound 2.53 µM) | relative viability ([3]; first compound 8 µM) | relative viability ([4]; first compound 0.08 µM) | relative viability ([4]; first compound 0.253 µM) | relative viability ([4]; first compound 0.8 µM) | relative viability ([4]; first compound 2.53 µM) | relative viability ([4]; first compound 8 µM) |
| --- | --- | --- | --- | --- | --- | --- | --- | --- | --- | --- | --- | --- | --- | --- | --- | --- | --- | --- | --- | --- |
| COR-L 105 | 1.04 | 0.748 | 0.943 | 0.91 | 0.926 | 0.367 | 0.347 | 0.416 | 0.311 | 0.279 | 0.994 | 0.808 | 1.05 | 1.04 | 0.748 | 0.722 | 0.622 | 0.754 | 0.56 | 0.646 |
| EKVX | 0.925 | 1.1 | 0.94 | 1.14 | 0.711 | 0.197 | 0.473 | 0.18 | 0.166 | 0.216 | 0.844 | 0.9 | 0.799 | 0.794 | 0.674 | – | 0.781 | 0.661 | 0.565 | 0.537 |
| EMC-BAC-2 | 0.835 | 0.805 | 0.775 | 0.894 | 0.754 | 0.891 | 0.847 | 0.953 | 0.666 | 0.781 | 0.759 | 0.731 | 0.739 | 0.774 | 0.703 | 0.401 | 0.317 | 0.43 | 0.253 | 0.347 |
| EPLC-272H | 1.32 | 1.09 | 1.04 | 1.35 | 0.927 | 0.814 | 0.861 | 0.805 | 0.913 | 0.847 | 0.968 | 0.847 | 0.795 | 1.04 | 0.895 | 0.328 | 0.271 | 0.265 | 0.225 | 0.265 |
| H3255 | 0.872 | 0.926 | 1.02 | 1.16 | 0.891 | 0.265 | 0.273 | 0.256 | 0.174 | 0.242 | 0.608 | 0.667 | 0.721 | 0.806 | 0.587 | 0.596 | 0.642 | 0.626 | 0.532 | 0.579 |
| HARA | 0.978 | 1.02 | 0.943 | 1.1 | 1.01 | 0.798 | 0.614 | 0.781 | 0.374 | 0.701 | 0.892 | 0.911 | 0.747 | 0.855 | 0.776 | 0.496 | 0.22 | 0.378 | 0.377 | 0.325 |
| HCC-15 | 0.931 | 0.986 | 0.861 | 0.941 | 0.667 | 0.865 | 0.963 | 0.758 | 0.792 | 0.652 | 0.956 | 0.954 | 0.846 | 0.902 | 0.712 | 0.691 | 0.757 | 0.584 | 0.427 | 0.442 |
| HCC-44 | 0.64 | 0.626 | 0.633 | 0.697 | 0.649 | 0.972 | 1.08 | 0.981 | 0.933 | 0.925 | 0.845 | 0.834 | 0.798 | 0.74 | 0.707 | 0.488 | 0.451 | 0.508 | 0.302 | 0.508 |
